Marks after values point to notes of the source that are not given here.
System: male rats
Assay: Plasma metabolite profiling (GC-MS, LC-MS, SPE-LC-MS) in male rats dosed once daily over 28 days (OECD 407)
Format: in vivo, rat
Conditions: high dose; for Glycochenodeoxycholic acid / Mannose: Table 15c; for 3,4-Dihydroxyphenylacetic acid (DOPAC) / 18-Hydroxy-11-deoxycorticosterone / Glycerol phosphate, lipid fraction / Homovanillic acid (HVA) / Kynurenic acid / Lysophosphatidylcholine (C18:1) / Lysophosphatidylethanolamine (C22:5) / Phosphate, lipid fraction / Phosphatidylcholine (C18:0,C18:1) / Sphingomyelin (d18:1, C16:0) / Sphingomyelin (d18:1,C23:0) / Sphingomyelin (d18:1,C24:0) / Sphingomyelin (d18:2,C18:0) / TAG No 02 / Taurocholic acid / myo-Inositol, lipid fraction: Table 15d; for Alanine, ratio versus control / Androstenedione, ratio versus control / Glycine, ratio versus control / Heptadecanoic acid (C17:0), ratio versus control / Testosterone, ratio versus control / Threonine, ratio versus control / Uric acid, ratio versus control / alpha-Tocopherol, ratio versus control / Cholesterol, ratio versus control: male rats, plasma
How it was run: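 Metabolites were measured by GC-MS (derivatised) and reversed-phase LC-MS, with steroids by online SPE-LC-MS, in plasma drawn from fasted rats on days 7, 14 and 28 of once-daily dosing (5/sex/group). Values are ratios versus sex-matched untreated controls, normalized to pool samples, with Welch-test p-values.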

## C[C@@H]1CC2=CC(=O)CC[C@@H]2[C@H]2CC[C@@]3(C)[C@@H](CC[C@]3(C)O)[C@@H]21 [Mibolerone]
m7, male rats
  Glycochenodeoxycholic acid: 1.31
  Mannose: 1.41 *
  3,4-Dihydroxyphenylacetic acid (DOPAC): 0.83 *
  18-Hydroxy-11-deoxycorticosterone: 0.83 *
  Glycerol phosphate, lipid fraction: 0.08 *
  Homovanillic acid (HVA): 0.5 *
  Kynurenic acid: 0.73 *
  Lysophosphatidylcholine (C18:1): 0.53 *
  Lysophosphatidylethanolamine (C22:5): 0.54 *
  Phosphate, lipid fraction: 0.32 *
  Phosphatidylcholine (C18:0,C18:1): 0.19 *
  Sphingomyelin (d18:1, C16:0): 0.12 *
  Sphingomyelin (d18:1,C23:0): 0.07 *
  Sphingomyelin (d18:1,C24:0): 0.1 *
  Sphingomyelin (d18:2,C18:0): 0.17 *
  TAG No 02: 0.34 *
  Taurocholic acid: 1.11
  myo-Inositol, lipid fraction: 0.08 *
m14, male rats
  Glycochenodeoxycholic acid: 2.14 *
  Mannose: 1.08 *
  3,4-Dihydroxyphenylacetic acid (DOPAC): 0.96
  18-Hydroxy-11-deoxycorticosterone: 0.93
  Glycerol phosphate, lipid fraction: 0.35 *
  Homovanillic acid (HVA): 0.69 *
  Kynurenic acid: 0.5
  Lysophosphatidylcholine (C18:1): 0.81 *
  Lysophosphatidylethanolamine (C22:5): 0.87
  Phosphate, lipid fraction: 0.62 *
  Phosphatidylcholine (C18:0,C18:1): 0.61 *
  Sphingomyelin (d18:1, C16:0): 0.37 *
  Sphingomyelin (d18:1,C23:0): 0.53 *
  Sphingomyelin (d18:1,C24:0): 0.63 *
  Sphingomyelin (d18:2,C18:0): 0.3 *
  TAG No 02: 0.24 *
  Taurocholic acid: 0.62 *
  myo-Inositol, lipid fraction: 0.29 *
m28, male rats
  Glycochenodeoxycholic acid: 5.73 *
  Mannose: 1.07 *
  3,4-Dihydroxyphenylacetic acid (DOPAC): 0.79 *
  18-Hydroxy-11-deoxycorticosterone: 0.63 *
  Glycerol phosphate, lipid fraction: 0.7
  Homovanillic acid (HVA): 0.6 *
  Kynurenic acid: 0.54 *
  Lysophosphatidylcholine (C18:1): 0.91 *
  Lysophosphatidylethanolamine (C22:5): 0.85 *
  Phosphate, lipid fraction: 0.81 *
  Phosphatidylcholine (C18:0,C18:1): 1.1
  Sphingomyelin (d18:1, C16:0): 0.51 *
  Sphingomyelin (d18:1,C23:0): 1.09
  Sphingomyelin (d18:1,C24:0): 1.01
  Sphingomyelin (d18:2,C18:0): 0.33 *
  TAG No 02: 0.23 *
  Taurocholic acid: 0.75 *
  myo-Inositol, lipid fraction: 0.5 *
Day 7
  Alanine, ratio versus control: 0.72 *
  Androstenedione, ratio versus control: 0.05 *
  Glycine, ratio versus control: 0.86 *
  Heptadecanoic acid (C17:0), ratio versus control: 0.37 *
  Testosterone, ratio versus control: 0.07 *
  Threonine, ratio versus control: 0.76 *
  Uric acid, ratio versus control: 0.66 *
  alpha-Tocopherol, ratio versus control: 0.07 *
Day 14
  Alanine, ratio versus control: 0.93 *
  Androstenedione, ratio versus control: 0.96^
  Cholesterol, ratio versus control: 0.27 *
  Glycine, ratio versus control: 0.86^
  Heptadecanoic acid (C17:0), ratio versus control: 0.57 *
  Testosterone, ratio versus control: 0.68 *
  Threonine, ratio versus control: 1.02^
  Uric acid, ratio versus control: 0.7 *
  alpha-Tocopherol, ratio versus control: 0.33 *
Day 28
  Alanine, ratio versus control: 1.14^
  Androstenedione, ratio versus control: 0.46 *
  Cholesterol, ratio versus control: 0.52 *
  Glycine, ratio versus control: 0.72 *
  Heptadecanoic acid (C17:0), ratio versus control: 0.82 *
  Testosterone, ratio versus control: 0.26 *
  Threonine, ratio versus control: 1.04^
  Uric acid, ratio versus control: 0.5 *
  alpha-Tocopherol, ratio versus control: 0.64 *

Source: patent US20150010928A1, “MEANS AND METHODS FOR ASSESSING AN ENDOCRINE DISEASE OR DISORDER” (priority 2012, published 2015)
